Data as given in patent US8110348B2, “Methods and compositions for the diagnosis and treatment of schizophrenia” (priority 2005, dated 2012).
“Also recorded” adds a separate entry of the source.

How the values were obtained:
hippocampal neurons = experiment: Primary and secondary dendrite number in cultured hippocampal neurons; format: cell-based, rat
From the text: In this example, the effects of overexpression of NOS1AP protein in neurons were examined using primary cultures of hippocampal neurons. cDNAs encoding the full-length NOS1AP protein (SEQ ID No. 2) and NOS1AP-S protein (SEQ ID No. 4) were separately cloned into expression vectors and transfected along with GFP (to elucidate neuronal morphology) at 10 days in vitro, a time when dendrite outgrowth and branching is rapidly occurring. It was hypothesized that NOS1AP may affect dendrite number since the NMDA receptor has been implicated in playing a role in regulating dendrite number, and overexpression of NOS1AP is thought to disrupt NMDA receptor signaling. Two days after transfection, the neurons were fixed, and dedrites were counted as described in Akum et al., Nat Neurosci 2004 February; 7(2):145-52, 2004 and Chen et al., Mol Biol Cell 2005 November; 16(11):5103-14. […] Since dendrite morphology is crucial to interneuronal communication, the increases in short-form NOS1AP protein seen in patients suffering from neuropsychiatric disorders, such as schizophrenia and bipolar disorders, may result in altered dendrite morphology in the hippocampus, and perhaps the DLPFC.
Neuronal cultures were prepared from hippocampi of rat embryos at 18 day gestation as described previously (Firestein et al., 1999). The hippocampi were dissociated, and cells were plated on poly-D-lysine-coated glass coverslips (12 mm diameter) at a density of 1800 cells/mm^2. Cultures were maintained in Neurobasal media supplemented with B27, penicillin, streptomycin, and L-glutamine. Cells were grown for 5-21 days in vitro (DIV) and used for specific experiments as indicated below.
cDNAs encoding human NOS1AP and several mutant forms of human NOS1AP were cloned into the expression vector pCMV6-XL4 (Origene). These plasmids are referred to directly as NOS1AP (or NOS1AP mutants) without indicating the vector. In addition, the fusion proteins GFP-NOS1AP-L (GFP-NPL), GFP-NOS1AP-S (GFP-NPS), and GFP-NOS1AP-181-307 (GFP-NOS1AP-M, GFP-NPM) were constructed in the pEGFP-C1 vector (Clontech Inc.). Cultured hippocampal neurons were transfected with the appropriate cDNA constructs as follows. Neurons were transfected on DIV 10 using […] following the manufacturer's protocol (Qiagen Inc.). Neurons were transfected on DIV 2, 5, or 7 using LIPOFECTAMINE-2000 following the manufacturer's protocol (Invitrogen Inc.). The Amaxa Nucleofector kit for Rat Neurons (Amaxa Inc., kit VPG-1003) was used to transfect newly dissected neurons (DIV 0) before plating.
Neurons were fixed in 4% paraformaldehyde in PBS for 30 minutes and then incubated in blocking solution (PBS containing 0.1% Triton X-100, 2% normal goat serum, and 0.02% sodium azide) for 1 h. All antibodies used were diluted in blocking solution. For GFP and NOS1AP or GFP and HA double immunostaining, dilutions of 1:1000 for rat anti-GFP and 1:500 for rabbit anti-NOS1AP, or 1:500 for goat anti-NOS1AP, or 1:1000 for mouse anti-HA (CRP Inc.) were used. […] Labeled cells were visualized by immunofluorescence on an Olympus Optical (Tokyo, Japan) IX50 microscope with a Cooke Sensicam charge-coupled device cooled camera fluorescence imaging system and Image Pro software (Media Cybernetics, Silver Spring, Md.).
Primary and secondary dendrite numbers were counted by hand with the experimenter blinded to the conditions (Akum et al., 2004). Pictures of neurons were contrast-enhanced and the numbers of primary and secondary dendrites for each neuron were recorded. […]

NOS1AP = experiment: Knockdown of endogenous NOS1AP protein, immunofluorescence intensity in primary dendrites; format: cell-based, rat; conditions: hippocampal neurons transfected DIV 10, fixed DIV 12 (48 hours)
From the text: A) Hippocampal neurons were transfected with either pSUPER-scramble shRNA or pSUPER-NOS1AP shRNA at DIV10 and fixed at DIV12. B) Quantification of primary dendrites shown. C) Hippocampal neurons transfected with the same vectors as in A at DIV10 and fixed and immunostained for NOS1AP at DIV12. Zoomed inset indicates a representative region of primary dendrite showing corresponding fluorescence intensities of anti-NOS1AP. D) Quantification of NOS1AP levels in primary dendrite regions, as represented by normalized (total intensity/area) fluorescence intensity levels. *p<0.05 by Student's t-test.
A shRNA was constructed to knock down NOS1AP-L with the sequence 5′-[…]-3′ (SEQ ID NO: 22; position 790 of NM_138922) using the pSUPER vector. The resulting siRNA is specific to the long isoform of NOS1AP. […] Importantly, primary dendrite number increases by 67% when NOS1AP is knocked down (FIGS. 16A and B).

Compound: N[C@@H](CCCP(=O)(O)O)C(=O)O [APV]
- additional decrease in dendrite branching (hippocampal neurons; NOS1AP-L transfected neurons treated with APV): does not result in any additional decrease
- drop in primary dendrite branching (hippocampal neurons; control cells transfected with GFP alone, dosage of APV expected to fully block NMDA receptor function): approximately 25%

Compound: COC(=O)[C@@H](N)CCCNC(=N)N[N+](=O)[O-] [L-NAME, N(ω)-nitro-L-arginine-methyl ester]
- difference in secondary dendrite number, NOS1AP-Long alone vs with L-NAME (hippocampal neurons; 500 μM L-NAME, FIG. 10C): smaller, yet the distinction was still clear
- effect on NOS1AP-Long effects on dendrite branching (hippocampal neurons; L-NAME 500 μM (FIG. 10 legend prints 500 nM) added right after transfection DIV 10, fixed DIV 12): partial reduction of NOS1AP-Long effects; also recorded: reduced NOS1AP-Long (CP-L) activity

Compound: shRNA against NOS1AP-L: shRNA to knock down NOS1AP-L, sequence 5′-GCAATATCTTCAGATGCAA-3′ (SEQ ID NO: 22), in the pSUPER vector
- increase in primary dendrite number (hippocampal neurons; NOS1AP knocked down, DIV 10-12, 48 hours, vs scramble shRNA): 67%
- decrease in NOS1AP expression (knockdown of endogenous NOS1AP protein) (NOS1AP): 40%
- decrease in NOS1AP expression (knockdown of endogenous NOS1AP protein) (NOS1AP; listed as SEQ ID NO: 22): 40%
- decrease in NOS1AP expression (knockdown of endogenous NOS1AP protein) (NOS1AP; listed as shRNA Against NOS1AP Coding Sequence (Position 398)): Approximately 45%
